Results as given in publication PMC6718453 (Frontiers in Aging Neuroscience, 2019).
Converted amounts (≈) assume the structure as drawn.

Target: acetylcholinesterase (AChE)

O=C(/C=C/C=C/c1ccc2c(c1)OCO2)N1CCCCC1 [piperine]
IC50 ± SEM: 76.6 ± 0.08 µg/mL (≈ 268 µM)
